Series [1] deals with mouse model of ischemic stroke. Briefly: Neurological function tests after tMCAO. In kind it is in vivo. The conditions noted are these: 5.0 mg/kg. How it is done: The scores were: 0, no observable deficit; 1, forelimb flexion; 2, forelimb flexion and decreased resistance to lateral push; 3, forelimb flexion, decreased resistance to lateral push, and unilateral circling; 4, forelimb flexion and partial or complete lack of ambulation.
In brief, the corner test apparatus consists of two cardboards (30×20×1 cm each) placed together at a 30° angle to form a narrow alley. The mouse was placed between the two angled boards facing the corner. When exiting the corner, uninjured mice turned left or right randomly. […] The numbers of left and right turns of each mouse during 10 trials were recorded, and turning movements that were not part of a rearing movement were not scored. Preoperative training was carried twice per day for three days prior to operation. Postoperatively, animals were tested on day 1, 3, 5, and 7.
In brief, two small pieces of adhesive tape (4 mm×3 mm) were attached to the forepaws in an alternating sequence and with equal pressure by the experimenter before each trial. Animals were released into a testing cage, and the time of contact and removal of the adhesive patch were recorded. Contact was recorded when either shaking of the paw or mouth contact occurred. The trial ended after the adhesive patch was removed or after 2 min had elapsed. Preoperative training was carried twice per day for three days prior to operation. Postoperatively, animals were tested on day 1, 3, 5, and 7.
Referring to FIG. 13, neurological deficit scores, corner tests, and adhesive tape contact and adhesive tape removal tests of mice treated with vehicle or ZT-1a 1 day before tMCAO (˜1) and at days 0, 1, 3, 5, and 7 post-tMCAO are shown. Vehicle (DMSO, 2 ml/kg) or ZT-1a (5.0 mg/kg) were administered as described in B. Data are means±SEM, n=6 for each group (male 3, female 3). * p<0.05 vs. vehicle.

On the set-up of series [2]: species or system ICR mice. Particulars: ICR, mouse, in vivo. The method, then:
Referring to Table 3, ZT-1a pharmacokinetics were determined following a single 5 mg/kg intravenous (IV) dose and a single 10 mg/kg oral (PO) dose in ICR mice (N=3 at each time point). Blood samples were collected at 0.08, 0.25, 0.5, 1, 2, 4, 8, 10 & 24 hr (IV) & 0.25, 0.5, 1, 2, 4, 8, 10 & 24 hr (PO) post dose. Samples were subjected to drug assay by LC-MS/MS, and data were analyzed by WinNonlin V6.3. Tmax=time of maximum plasma concentration, Cmax=maximum plasma concentration, AUC=area under the curve (measure of exposure), T1/2=half life, CL=plasma clearance, Vz=volume of distribution, MRT, mean residence time; F=oral bioavailability.

The test system of series [3] is KCC2 double mutant Thr906A1a/Thr1007Ala. Briefly: 86Rb+ uptake assay in HEK293 cells. In kind it is cell-based, human. The conditions noted are these: n=3, p>0.05. How it is done:
(§1) HEK293 cells were plated at 50-60% confluence of in 12-well plates (2.4-cm-diameter per/well) and transfected with wild-type or various mutant forms of full-length flag-tagged human KCCs. Each well of HEK293 cells was transfected with 2.5 μL of 1 mg/mL polyethylenimine and 1 μg of plasmid DNA. The ^86Rb^+-uptake assay was performed on cells at 36 hours post-transfection. Culture medium was aspirated from the wells and replaced with either isotonic or hypotonic medium for 15 min at 37° C., then for a further 15 min with stimulating medium containing additional 1 mM ouabain and 0.1 mM bumetanide, to prevent ^86Rb^+ uptake via the NKCC1 cotransporter. This stimulating medium was then removed and replaced with isotonic medium plus inhibitors containing 2 μCi/mL ^86Rb^+ for 10 min at 37° C., following which cells were rapidly washed three times with the respective ice-cold non-radioactive medium. The cells were lysed in 300 μL of ice-cold lysis buffer and ^86Rb^+ uptake was quantitated by liquid scintillation counting (PerkinElmer).
(§2) Referring to FIG. 8, ^86Rb^+ uptake assays in the presence of ZT-1a is shown. […] 10 min ^86Rb^+ uptake values were quantified by scintillation counting, normalized per mg protein for each condition and plotted for both isotonic and hypotonic conditions. Statistical significance was determined at p<0.05 (both panels).

A further series has as its system wild type KCC2. Kind of series: 86Rb+ uptake assay in HEK293 cells. In kind it is cell-based, human. The conditions noted are these: n=3. The method, then:
as §1, §2

The next series has as its system pSPAK. Kind of series: IVH-induced phosphorylation in rat choroid plexus, ICV delivery. It counts as in vivo. The conditions noted are these: 48 hrs post-IVH, n=3.
A further series deals with humans. The conditions noted are these: in vivo, 25 mg/kg; cited from earlier work.

Like-named read-outs stand apart in the source and are kept apart here.

For `Cc1cc(C(C#N)c2ccc(Cl)cc2)c(Cl)cc1NC(=O)c1cc(Cl)ccc1O` (stereo not shown) [ZT-1a, 5-chloro-N-(5-chloro-4-((4-chlorophenyl)(cyano)methyl)-2-methylphenyl)-2-hydroxy-benzamide], the corner test entry in series [1] (days 1-7 post-stroke) is “reduced unidirectional turn preference and absence of asymmetries by day 7 post-stroke”. Besides, in series [1] (vs vehicle, p<0.05), the adhesive removal test entry is “significantly improved motor function”. Besides, the adhesive contact test entry in series [1] (vs vehicle, p=0.10) was “trend to faster contact response”. In series [2], this molecule had an AUC of 2340 ng·h/mL. In series [2] (iv, 5 mg/kg), the C0 worked out at 14900 ng/mL, the Cl amounted to 35.5 mL/min/kg, the “MRT(0-∞)” value was 0.45 h and the Vz came out at 0.948 L/kg. Besides, the “MRT(0-∞)” value in series [2] (po, 10 mg/kg) stood at 3.3 h. Besides, the “increase of activity of KCC2 double mutant (86Rb+ uptake)” value in series [3] was 7±2%. Also, the “activation of WT KCC2 (86Rb+ uptake)” value in the series on wild type KCC2 was above 2.6 fold. Moreover, in the series on pSPAK, the “reduction of IVH-induced expression of pSPAK” value came out at 55±3.6%.
Take `Cc1cc(C(C#N)c2ccc(Cl)cc2)c(Cl)cc1NC(=O)c1cc(I)cc(I)c1O` (stereo not shown) [Closantel]: the “adverse effects in humans” value in the series on humans was “weakness, visual impairment and blindness”.

In general, AUC refers to concentration integrated over time. Lower therefore signals low exposure. The Vz is a proportionality between amount in the body and measured concentration, not a real space.
